Several values for one entry are separate records, joined by “and”; a condition that tells them apart may be missing. Equal values may be shown once.
Test system: 233499-124-R-J3-PDC complex spheroid growth
Experiment: Anticancer human tumor 233499-124-R-J3-PDC patient-derived colon adenocarcinoma cell line growth inhibition [AhR]
Details: for viability, T/C: stronger effect = lower value
How it was run: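 Agents were dosed in half-log steps down from roughly clinical Cmax, or from 10 microM where Cmax was unknown, alone and with AhR antagonists. Read-out: percent test/control growth of tumor spheroids containing HUVEC and MSC stromal cells.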

[1] = curve of first compound, second compound 0.1 µM
[2] = curve of first compound, second compound 0.316 µM
[3] = curve of first compound, second compound 1 µM
[4] = curve of first compound, second compound 3.16 µM
[5] = curve of first compound, second compound 10 µM
[6] = second compound 0.1 µM, first compound 0.0316 µM
[7] = second compound 0.1 µM, first compound 0.1 µM
[8] = second compound 0.1 µM, first compound 0.316 µM
[9] = second compound 0.1 µM, first compound 1 µM
[10] = second compound 0.316 µM, first compound 0.0316 µM
[11] = second compound 0.316 µM, first compound 0.1 µM
[12] = second compound 0.316 µM, first compound 0.316 µM
[13] = second compound 0.316 µM, first compound 1 µM
[14] = second compound 1 µM, first compound 0.0316 µM
[15] = second compound 1 µM, first compound 0.1 µM
[16] = second compound 1 µM, first compound 0.316 µM
[17] = second compound 1 µM, first compound 1 µM
[18] = second compound 3.16 µM, first compound 0.0316 µM
[19] = second compound 3.16 µM, first compound 0.1 µM
[20] = second compound 3.16 µM, first compound 0.316 µM
[21] = second compound 3.16 µM, first compound 1 µM
[22] = second compound 10 µM, first compound 0.0316 µM
[23] = second compound 10 µM, first compound 0.1 µM
[24] = second compound 10 µM, first compound 0.316 µM
[25] = second compound 10 µM, first compound 1 µM
[26] = second compound 0.1 µM, first compound 3.16 µM
[27] = second compound 0.1 µM, first compound 10 µM
[28] = second compound 0.316 µM, first compound 3.16 µM
[29] = second compound 0.316 µM, first compound 10 µM
[30] = second compound 1 µM, first compound 3.16 µM
[31] = second compound 1 µM, first compound 10 µM
[32] = second compound 3.16 µM, first compound 3.16 µM
[33] = second compound 3.16 µM, first compound 10 µM
[34] = second compound 10 µM, first compound 3.16 µM
[35] = second compound 10 µM, first compound 10 µM
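Note: spheroids exposed to agents for seven days before reading.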

Nc1ncn(C2CC(O)C(CO)O2)c(=O)n1 (stereo unspecified) + CC(CO)NC(=O)c1cc(-c2ccc(Cl)cc2)nn(-c2cnn(C)c2)c1=O
IC50 [1]: > 1 µM
IC50 [2]: > 1 µM
IC50 [3]: > 1 µM
IC50 [4]: > 1 µM
IC50 [5]: > 1 µM
viability, T/C (second compound 0.1 µM, first compound 0.00316 µM): 103%
viability, T/C (second compound 0.1 µM, first compound 0.01 µM): 103%
viability, T/C [6]: 104%
viability, T/C [7]: 94.1%
viability, T/C [8]: 93%
viability, T/C [9]: 94.2%
viability, T/C (second compound 0.316 µM, first compound 0.00316 µM): 98.2%
viability, T/C (second compound 0.316 µM, first compound 0.01 µM): 103%
viability, T/C [10]: 79.4%
viability, T/C [11]: 92.9%
viability, T/C [12]: 91%
viability, T/C [13]: 95.5%
viability, T/C (second compound 1 µM, first compound 0.00316 µM): 92.3%
viability, T/C (second compound 1 µM, first compound 0.01 µM): 94.5%
viability, T/C [14]: 88.9%
viability, T/C [15]: 72.5%
viability, T/C [16]: 85.6%
viability, T/C [17]: 91.9%
viability, T/C (second compound 3.16 µM, first compound 0.00316 µM): 95.9%
viability, T/C (second compound 3.16 µM, first compound 0.01 µM): 104%
viability, T/C [18]: 90.4%
viability, T/C [19]: 89.5%
viability, T/C [20]: 87.1%
viability, T/C [21]: 83.2%
viability, T/C (second compound 10 µM, first compound 0.00316 µM): 89.2%
viability, T/C (second compound 10 µM, first compound 0.01 µM): 79.9%
viability, T/C [22]: 89.7%
viability, T/C [23]: 97.7%
viability, T/C [24]: 85.9%
viability, T/C [25]: 93.2%

O=C(C=Cc1cccc(S(=O)(=O)Nc2ccccc2)c1)NO
viability, T/C (compound 0.0316 µM): 98.2% and 96.2% and 89.6%
viability, T/C (compound 0.1 µM): 112% and 105% and 102%
viability, T/C (compound 0.316 µM): 97.2% and 109% and 111%
viability, T/C (compound 1 µM): 115% (2×) and 109%
viability, T/C (compound 3.16 µM): 95.7% and 101% and 82.7%
viability, T/C (compound 10 µM): 19.4% and 12.2% and 13.2%
IC50 (curve of compound): 6.32 µM and 6.14 µM and 5.43 µM

CC1(C)CCC(CN2CCN(c3ccc(C(=O)NS(=O)(=O)c4ccc(NCC5CCOCC5)c([N+](=O)[O-])c4)c(Oc4cnc5[nH]ccc5c4)c3)CC2)=C(c2ccc(Cl)cc2)C1 + Cc1ccccc1N=Nc1ccc(NC(=O)c2ccnn2C)c(C)c1
IC50 [1]: > 10 µM
IC50 [2]: 8.7 µM
IC50 [3]: 9.24 µM
IC50 [4]: 7.49 µM
IC50 [5]: 7.21 µM
viability, T/C [6]: 94.8%
viability, T/C [7]: 116%
viability, T/C [8]: 102%
viability, T/C [9]: 108%
viability, T/C [26]: 117%
viability, T/C [27]: 51.5%
viability, T/C [10]: 111%
viability, T/C [11]: 110%
viability, T/C [12]: 97%
viability, T/C [13]: 112%
viability, T/C [28]: 118%
viability, T/C [29]: 41.8%
viability, T/C [14]: 104%
viability, T/C [15]: 106%
viability, T/C [16]: 97.6%
viability, T/C [17]: 122%
viability, T/C [30]: 122%
viability, T/C [31]: 45.5%
viability, T/C [18]: 102%
viability, T/C [19]: 97.7%
viability, T/C [20]: 104%
viability, T/C [21]: 99.4%
viability, T/C [32]: 113%
viability, T/C [33]: 32.2%
viability, T/C [22]: 121%
viability, T/C [23]: 99.3%
viability, T/C [24]: 112%
viability, T/C [25]: 107%
viability, T/C [34]: 109%
viability, T/C [35]: 26.6%

Nc1ncn(C2CC(O)C(CO)S2)c(=O)n1 (stereo unspecified) + CC(CO)NC(=O)c1cc(-c2ccc(Cl)cc2)nn(-c2cnn(C)c2)c1=O
IC50 [1]: > 0.3 µM
IC50 [2]: > 0.3 µM
IC50 [3]: > 0.3 µM
IC50 [4]: > 0.3 µM
IC50 [5]: > 0.3 µM
viability, T/C (second compound 0.1 µM, first compound 0.000949 µM): 106%
viability, T/C (second compound 0.1 µM, first compound 0.003 µM): 109%
viability, T/C (second compound 0.1 µM, first compound 0.00949 µM): 92.5%
viability, T/C (second compound 0.1 µM, first compound 0.03 µM): 109%
viability, T/C (second compound 0.1 µM, first compound 0.0949 µM): 104%
viability, T/C (second compound 0.1 µM, first compound 0.3 µM): 86.3%
viability, T/C (second compound 0.316 µM, first compound 0.000949 µM): 99.5%
viability, T/C (second compound 0.316 µM, first compound 0.003 µM): 95.5%
viability, T/C (second compound 0.316 µM, first compound 0.00949 µM): 105%
viability, T/C (second compound 0.316 µM, first compound 0.03 µM): 97%
viability, T/C (second compound 0.316 µM, first compound 0.0949 µM): 104%
viability, T/C (second compound 0.316 µM, first compound 0.3 µM): 95%
viability, T/C (second compound 1 µM, first compound 0.000949 µM): 98.2%
viability, T/C (second compound 1 µM, first compound 0.003 µM): 105%
viability, T/C (second compound 1 µM, first compound 0.00949 µM): 113%
viability, T/C (second compound 1 µM, first compound 0.03 µM): 100%
viability, T/C (second compound 1 µM, first compound 0.0949 µM): 106%
viability, T/C (second compound 1 µM, first compound 0.3 µM): 96.9%
viability, T/C (second compound 3.16 µM, first compound 0.000949 µM): 103%
viability, T/C (second compound 3.16 µM, first compound 0.003 µM): 100%
viability, T/C (second compound 3.16 µM, first compound 0.00949 µM): 103%
viability, T/C (second compound 3.16 µM, first compound 0.03 µM): 112%
viability, T/C (second compound 3.16 µM, first compound 0.0949 µM): 89.5%
viability, T/C (second compound 3.16 µM, first compound 0.3 µM): 90.5%
viability, T/C (second compound 10 µM, first compound 0.000949 µM): 86.8%
viability, T/C (second compound 10 µM, first compound 0.003 µM): 84.1%
viability, T/C (second compound 10 µM, first compound 0.00949 µM): 101%
viability, T/C (second compound 10 µM, first compound 0.03 µM): 100%
viability, T/C (second compound 10 µM, first compound 0.0949 µM): 102%
viability, T/C (second compound 10 µM, first compound 0.3 µM): 87.6%

Nc1ncn(C2CC(O)C(CO)S2)c(=O)n1 (stereo unspecified)
viability, T/C (compound 0.000949 µM): 94.5% and 95.6% and 104%
viability, T/C (compound 0.003 µM): 108% and 104% and 118%
viability, T/C (compound 0.00949 µM): 102% and 112% and 110%
viability, T/C (compound 0.03 µM): 107% and 101% and 116%
viability, T/C (compound 0.0949 µM): 103% and 105% and 100%
viability, T/C (compound 0.3 µM): 98.6% and 109% and 104%
IC50 (curve of compound): > 0.3 µM

O=C(c1cc(Cc2n[nH]c(=O)c3ccccc23)ccc1F)N1CCN(C(=O)C2CC2)CC1
viability, T/C (compound 0.0316 µM): 103% and 99.9% and 91.7%
viability, T/C (compound 0.1 µM): 97.6% and 103% and 104%
viability, T/C (compound 0.316 µM): 97.3% and 100% and 107%
viability, T/C (compound 1 µM): 108% and 113% and 102%
viability, T/C (compound 3.16 µM): 108% and 92.6% and 99.9%
viability, T/C (compound 10 µM): 93.2% and 85.1% and 76.2%
IC50 (curve of compound): > 10 µM

CC(C)c1c(-c2ccccc2)nc2c(C#N)c[nH]n2c1=O + Cc1ccccc1N=Nc1ccc(NC(=O)c2ccnn2C)c(C)c1
IC50 [1]: > 10 µM
IC50 [2]: > 10 µM
IC50 [3]: > 10 µM
IC50 [4]: > 10 µM
IC50 [5]: > 10 µM
viability, T/C [6]: 110%
viability, T/C [7]: 98.9%
viability, T/C [8]: 101%
viability, T/C [9]: 112%
viability, T/C [26]: 95.2%
viability, T/C [27]: 105%
viability, T/C [10]: 100%
viability, T/C [11]: 108%
viability, T/C [12]: 92.3%
viability, T/C [13]: 104%
viability, T/C [28]: 118%
viability, T/C [29]: 107%
viability, T/C [14]: 110%
viability, T/C [15]: 110%
viability, T/C [16]: 98.7%
viability, T/C [17]: 102%
viability, T/C [30]: 106%
viability, T/C [31]: 106%
viability, T/C [18]: 102%
viability, T/C [19]: 99.5%
viability, T/C [20]: 103%
viability, T/C [21]: 110%
viability, T/C [32]: 108%
viability, T/C [33]: 105%
viability, T/C [22]: 103%
viability, T/C [23]: 102%
viability, T/C [24]: 107%
viability, T/C [25]: 101%
viability, T/C [34]: 89%
viability, T/C [35]: 85.3%

From PubChem BioAssay AID1918993 (Molecular Pharmacology Branch, DTP, NCI, 2023)
